# Article PMC9272924, “Design and synthesis of thiazolidine-2,4-diones hybrids with 1,2-dihydroquinolones and 2-oxindoles as potential VEGFR-2 inhibitors: in-vitro anticancer evaluation and in-silico studies” (Journal of Enzyme Inhibition and Medicinal Chemistry, 2022)
# Several values for one entry are separate records, joined by “and”; a condition that tells them apart may be missing. Identical values can stand only once. Entries after “also recorded” stand apart in the source; their conditions may differ.
# Experiments:
# Caco-2 = assay: In vitro anti-proliferative activity (MTT assay), Caco-2; assay type: cell-based; conditions: Homo sapiens, Caco-2; MTT assay; mean of three replicates
# Protocol: (§1) Target quinolines 8a–c, indolines 12a and 12b were assessed for their potential anti-proliferative effects against a panel of three different cancer cell lines; colon (Caco-2), hepatocellular (HepG2), and breast (MDA-MB-231) cancer cell lines using standard MTT assay protocol. The obtained results confirmed the anti-cancer effects of the tested compounds against the three types of cancerous cell lines, expressed as the median growth inhibitory concentration (IC50), and were presented in Table 1.
# (§2) Anti-proliferative activities of the experimented compounds were assessed against Caco-2, HepG-2, and MDA-MB-231 cell lines using MTT assay protocol[54]^,[74] as described in Supplementary data. […]
# (§3) a- Mammalian cell lines culture
# (§4) WISH, CaCo-2, and A549 cell lines were cultured on DMEM media, meanwhile MDA-MB-231 and hepG-2 cell line were cultured on RBMI media. The cultured media were supplemented with 200 mM L-glutamine, 10.0% fetal bovine serum (Lonza), and 1.0% penicillin/streptomycin. Cells were seeded into 25.0 cm tissue culture flasks and incubated at 37◦C in a 5.0% CO2 incubator for 24 h or till confluency.
# (§5) The safety profiles of the tested compounds were checked on one non-cancerous cell line (Vero) to […]
# (§6) of 100.0 µl of 6×10^4 cell/ml cells was seeded into each well of a 96-well plate and then the plates were incubated at 37 °C in a humidified 5.0% CO2 incubator for 24 h. At the end of incubation period, the exhausted medium was replaced with 100.0 µl of different concentrations of the designated treatment (prepared in RPMI medium starting from 1.0 mM). The inoculated plates were incubated at the same growth conditions for another 24 h. At the end of incubation, cellular viability was assessed using MTS assay kit (Promega) according to the manual instruction. c- In-vitro anticancer activity
# (§7) Anticancer activities of the tested compounds against CaCo-2, MDA-MB-231, and hepG-2 cell lines were quantified using MTS assay kit (Promega) as described by the Manufacturer. d- Selectivity index (SI)
# (§8) The selectivity index values of the tested compounds on cancer cells were calculated as described by Koch et al., with slight modifications; SI=IC50nc/IC50cc, where IC50nc: the IC 50 value of the tested compound on normal cells and IC 50cc: IC50 of the te sted compound on cancer cell line . […]
# [1] = as above; assay type: cell-based; conditions: African green monkey (Vero); human (Caco-2); SI = Cytotoxicity against Vero cells / Cytotoxicity against Caco-2 cell line; read-out: Selectivity index (SI) (Caco-2)
# Protocol: as §1, §2, §3, §4, §5, §6, §7, §8
# HepG2 = assay: In vitro anti-proliferative activity (MTT assay), HepG2; assay type: cell-based; conditions: for IC50: Homo sapiens, HepG2, MTT assay, mean of three replicates; for Selectivity index (SI) (HepG2): SI = Cytotoxicity against Vero cells / Cytotoxicity against HepG2 cell line
# Protocol: as §1, §2, §3, §4, §5, §6, §7, §8
# VEGFR-2 = molecular target: T1, VEGFR-2 (Homo sapiens, UniProt P35968); assay: In vitro VEGFR-2 kinase assay (VEGFR-2 ELISA kit); assay type: biochemical; conditions: for HillSlope, best-fit value, VEGFR-2 inhibition / LogIC50, best-fit value, VEGFR-2 inhibition: raw data curve fit, % remaining activity
# T1 construct: purchased
# T1 sequence (P35968 20-1356): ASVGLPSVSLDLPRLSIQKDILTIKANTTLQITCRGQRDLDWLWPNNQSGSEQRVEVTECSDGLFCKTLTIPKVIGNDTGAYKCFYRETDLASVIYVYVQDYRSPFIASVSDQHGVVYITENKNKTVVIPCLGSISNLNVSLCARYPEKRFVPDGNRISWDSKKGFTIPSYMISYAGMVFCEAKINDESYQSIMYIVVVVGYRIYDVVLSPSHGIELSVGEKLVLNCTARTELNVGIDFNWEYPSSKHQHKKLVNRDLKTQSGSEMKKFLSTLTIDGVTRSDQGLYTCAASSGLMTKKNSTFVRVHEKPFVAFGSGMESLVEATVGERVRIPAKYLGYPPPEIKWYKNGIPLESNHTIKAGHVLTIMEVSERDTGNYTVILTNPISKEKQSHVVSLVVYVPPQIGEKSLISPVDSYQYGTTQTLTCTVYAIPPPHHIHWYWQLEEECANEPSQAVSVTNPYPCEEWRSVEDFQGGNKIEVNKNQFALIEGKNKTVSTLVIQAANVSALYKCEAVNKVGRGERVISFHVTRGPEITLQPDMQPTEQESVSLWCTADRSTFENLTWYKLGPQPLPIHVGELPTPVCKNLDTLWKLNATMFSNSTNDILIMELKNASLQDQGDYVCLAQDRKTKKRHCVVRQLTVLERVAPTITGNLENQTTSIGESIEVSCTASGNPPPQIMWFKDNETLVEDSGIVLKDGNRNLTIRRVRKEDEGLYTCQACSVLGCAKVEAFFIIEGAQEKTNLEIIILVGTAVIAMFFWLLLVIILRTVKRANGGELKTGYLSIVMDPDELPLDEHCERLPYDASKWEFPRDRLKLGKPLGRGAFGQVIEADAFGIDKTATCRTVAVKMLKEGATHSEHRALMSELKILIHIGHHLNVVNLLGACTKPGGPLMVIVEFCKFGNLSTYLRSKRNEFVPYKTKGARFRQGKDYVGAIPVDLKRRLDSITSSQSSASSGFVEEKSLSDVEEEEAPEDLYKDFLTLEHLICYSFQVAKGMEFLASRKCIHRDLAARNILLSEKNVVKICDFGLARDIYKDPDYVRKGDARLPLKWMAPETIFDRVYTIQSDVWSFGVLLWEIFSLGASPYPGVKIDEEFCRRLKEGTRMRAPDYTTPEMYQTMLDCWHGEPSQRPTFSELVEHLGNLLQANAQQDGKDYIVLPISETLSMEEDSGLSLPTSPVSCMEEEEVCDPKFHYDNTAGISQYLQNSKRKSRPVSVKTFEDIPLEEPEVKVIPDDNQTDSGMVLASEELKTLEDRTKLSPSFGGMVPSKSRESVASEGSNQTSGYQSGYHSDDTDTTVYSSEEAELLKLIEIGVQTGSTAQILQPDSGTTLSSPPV
# Source text: To explore the molecular mechanism of the tested compounds as anticancer agents, the compounds were further evaluated to assess their enzymatic inhibitory potential against VEGFR-2.
# VEGFR-2 inhibitory activity of the experimented compounds was preceded using a VEGFR-2 ELISA kit as reported and described in Supplementary data.
# [2] = Safety assay: in-vitro viability on non-cancerous Vero cell line; assay type: cell-based; conditions: African green monkey, Vero cells (non-cancerous cell line), MTT assay, read-out: Cytotoxicity against Vero (IC50 µM)
# Protocol: An in-vitro viability test was used to investigate the safety patterns of the tested compounds at different concentrations (1.0 mM/mL to 50 µM/mL). The Vero cell line was used as a non-cancerous cell line model to investigate the safety of the synthesised compounds. […] Such values were very high in comparison to the corresponding values on cancer cell lines, which reflect the high in vitro safety profile of the tested members towards non-cancerous cell lines (Table 2). […]
# as §3, §4, §5
# as §6, with “c- In-vitro anticancer activity” left out
# d- Selectivity index (SI)
# as §8
# MDA-MB-231 = assay: In vitro anti-proliferative activity (MTT assay), MDA-MB-231; assay type: cell-based; conditions: for IC50: Homo sapiens, MDA-MB-231, MTT assay, mean of three replicates; for Selectivity index (SI) (MDA-MB-231): SI = Cytotoxicity against Vero cells / Cytotoxicity against MDA-MB-231 cell line
# Protocol: as §1, §2, §3, §4, §5, §6, §7, §8
# Bcl-xl = assay: Gene expression by RT-qPCR in Caco-2 cells, Bcl-xl; assay type: cell-based; conditions: Caco-2 treated with 2 µM (IC50 value) of 12a, compared to control cells
# Source text: (§9) These findings indicate the efficiency of compound 12a in the induction of apoptosis (Figure 4).
# (§10) The molecular anticancer mode of action of 12a was investigated by screening their ability to control the gene expression levels of Bcl2, Bcl-xl, TGF and Survivin genes as reported[79] in Supplementary data. […]
# (§11) f- Gene expression pattern alternation of cancer cell after 12a treatment The molecular anticancer mode of action of 12a was investigated by screening their ability to affect the gene expression levels of Bcl2, Bcl-xl, TGF and Survivin genes using specific forward and reverse primers and RTq-PCR technique (Table 1) in CaCo-2 cells (chosen as the most sensitive cancer cell line). After cellular treatment, CaCo-2 cell line was cultured into 12 well plates (6×10^3 cell/ml) for 24 h. with the sub- […]
# (§12) After treatment, total RNA extraction was performed using RNA extraction kit (Qiagen, Germany). Then, 1 ug of the obtained RNA was used to synthesiz cDNA using cDNA synthesis kit (Promega Corp., Madison, WI) as recommended by the manufacturer. Simultaneously, GAPDH forward and reverse primers (Table 1) were used to amplify the house keeping gene as internal control for standardization of PCR products. The RTq-PCR was done using SYBR Green dye (QuantiTect SYBR Green PCR Kits) and Light Cycler fluorimeter (Bio-RAD S1000 Tm thermal cycler). […]
# Survivin = assay: Gene expression by RT-qPCR in Caco-2 cells, Survivin; assay type: cell-based; conditions: Caco-2 treated with 2 µM (IC50 value) of 12a, compared to control cells
# Source text: as §9, §10, §11, §12
# Bcl2 = assay: Gene expression by RT-qPCR in Caco-2 cells, Bcl2; assay type: cell-based; conditions: Caco-2 treated with 2 µM (IC50 value) of 12a, compared to control cells
# Source text: as §9, §10, §11, §12
# TGF = assay: Gene expression by RT-qPCR in Caco-2 cells, TGF; assay type: cell-based; conditions: Caco-2 treated with 2 µM (IC50 value) of 12a, compared to control cells
# Source text: as §9, §10, §11, §12
# Caco-2 cells = assay: Cell migration (in-vitro scratch / wound healing) assay; assay type: cell-based
# Source text: The potential of compound 12a to inhibit the ability of Caco-2 cells to migrate and heal was investigated through the in-vitro scratch assay which is a low-cost easy and well-developed method. The basic concept of this method involves the generation of a scratch in a cancer cell line monolayer, recording the diameter at the beginning, and at regular intervals during cell migration to close that scratch. The obtained results of the treated cell line are then compared to the untreated cell line. Images of scratched areas from the time points; 0, 24 are illustrated in Figure 3.
# Regarding the representative control, the scratch was completely closed within 24 h (Figure 3(C)). […] This significant morphological change could be linked to the incidence of apoptosis in the treated cancer cells.
# Cell migration assay was fulfilled according to the reported protocol as described[78] in Supplementary data. […]
# as §3
# as §4, with “confluency. […]” for “confluency.”
# e- Wound healing assay (Migration assay)
# CaCo-2 cells were grown to 95.0% confluency in a complete DMEM medium and then the wounds were formed using a plastic tip. After washing with pre -warmed PBS, the cells were incubated in the specific medium or the 12a treatment. After incubation at 37°C and 5.0% CO 2 for 24h, the cells were washed with PBS and the wounds distance was determined as the scratch width of the treated and untreated groups using […]
SMILES,IC50 (Caco-2),selectivity ratio [1],IC50 (HepG2),Selectivity index (SI) (HepG2) (HepG2),IC50 (VEGFR-2),"HillSlope, best-fit value, VEGFR-2 inhibition (VEGFR-2)","LogIC50, best-fit value, VEGFR-2 inhibition (VEGFR-2)",IC50 at 24 h [2],IC50 (MDA-MB-231),Selectivity index (SI) (MDA-MB-231) (MDA-MB-231),Bcl-xl gene expression (Bcl-xl),Survivin gene expression (Survivin),Bcl2 gene expression (Bcl2),TGF gene expression (TGF),"wound diameter of treated Caco-2 cells (Caco-2 cells; 12a at sub IC50 value (1 µM), 24 h, 0.348 mm at 0 h, control scratch completely closed within 24 h)","scratch closure and cancer cell migration (Caco-2 cells; Caco-2, 1 µM, 24 h)",Caco-2 cell shape (Caco-2 cells; within 24 h)
"Cc1ccc(NC(=O)CN2C(=O)SC(=Cc3cc4ccccc4[nH]c3=O)C2=O)cc1 [Compound 8a, 2–(2,4-Dioxo-5-((2-oxo-1,2-dihydroquinolin-3-yl)methylene)thiazolidin-3-yl)-N-(p-tolyl)acetamide]",9 ± 0.001 µM,177,86 ± 0.001 µM,18.49,0.0966 µM,-0.4030,1.985 Log (nM),1590 ± 0.068 µM,150 ± 0.01 µM,10.60,–,–,–,–,–,–,–
"O=C(CN1C(=O)SC(=Cc2cc3ccccc3[nH]c2=O)C1=O)NCCc1ccccc1 [Compound 8b, 2–(2,4-Dioxo-5-((2-oxo-1,2-dihydroquinolin-3-yl)methylene)thiazolidin-3-yl)-N-phenethylacetamide]",150 ± 0.013 µM,5.93,60 ± 0.008 µM,14.83,0.0874 µM,-0.3502,1.941 Log (nM),890 ± 0.015 µM,60 ± 0.003 µM,14.83,–,–,–,–,–,–,–
"O=C(CN1C(=O)SC(=Cc2cc3ccccc3[nH]c2=O)C1=O)Nc1ccccc1[N+](=O)[O-] [Compound 8c, 2–(2,4-Dioxo-5-((2-oxo-1,2-dihydroquinolin-3-yl)methylene)thiazolidin-3-yl)-N-(2-nitrophenyl)acetamide]",90 ± 0.004 µM,4.33,156 ± 0.004 µM,2.50,0.318 µM,-0.3460,2.502 Log (nM),390 ± 0.02 µM,70 ± 0.009 µM,5.57,–,–,–,–,–,–,–
"Cc1ccc(NC(=O)CN2C(=O)S/C(=C3\C(=O)Nc4ccccc43)C2=O)cc1 [Compound 12a, (Z)-2–(2,4-dioxo-5–(2-oxoindolin-3-ylidene)thiazolidin-3-yl)-N-(p-tolyl)acetamide]",2 ± 0.005 µM,365,10 ± 0.001 µM,73.00,–,-0.4584,2.066 Log (nM),730 ± 0.015 µM,40 ± 0.002 µM,18 and 18.25,significant down-regulation; also recorded: downregulate,significant down-regulation; also recorded: downregulate,significant down-regulation; also recorded: downregulate,upregulation; also recorded: upregulate,0.335 mm,significantly inhibited the scratch closure and cancer cell migration; also recorded: significantly inhibited the ability of cancer cells to migrate and heal,changed the Caco-2 cell shape from an irregular into the normalised round form; also recorded: changed the cancer cell shape from irregular to a normalised round form
"O=C(CN1C(=O)S/C(=C2\C(=O)Nc3ccccc32)C1=O)Nc1ccccc1[N+](=O)[O-] [Compound 12b, (Z)-2–(2,4-dioxo-5–(2-oxoindolin-3-ylidene)thiazolidin-3-yl)-N-(2-nitrophenyl) acetamide]",120 ± 0.001 µM,4,49 ± 0.008 µM,9.80,0.0841 µM,-0.2985,1.925 Log (nM),480 ± 40 µM,37 ± 0.002 µM,12.97,–,–,–,–,–,–,–
"COc1cccc2c1C(=O)c1c(O)c3c(c(O)c1C2=O)C[C@@](O)(C(=O)CO)C[C@@H]3O[C@H]1C[C@H](N)[C@H](O)[C@H](C)O1 [Doxorubicin, reference compound]",3.46 ± 0.003 µM,–,1.15 ± 0.02 µM,–,–,–,–,–,0.98 ± 0.01 µM,–,–,–,–,–,–,–,–
